Measurements published in patent publication US10227331B2 (priority 2015, dated 2019).

What was measured:
[1] = test system: P. aeruginosa expressing IMP-1, efflux+ (MB9798); assay type: cell-based, Pseudomonas aeruginosa; settings: for P. aeruginosa expressing IMP-1, efflux+ (MB9798) MITC95: imipenem at 2 μg/mL, in the presence of a class A, C, D serine β-lactamase inhibitor closely related to relebactam; for Efflux ratio: ratio MITC95 PA_9798/MITC95 PA_9799
From the text: (§1) The strain background is Pseudomonas aeruginosa PAO1.

[2] = molecular target: VIM-1 (Pseudomonas aeruginosa (strain ATCC 15692 / DSM 22644 / CIP 104116 / JCM 14847 / LMG 12228 / 1C / PRS 101 / PAO1), UniProt A0A0F7KYQ8); test: biochemical; settings: CCF2-FA substrate, 2 hours at 25° C
Method in brief: (§2)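 Enzyme activity was measured by fluorescence using CCF2-FA, a cephalosporin-linked 7-hydroxycoumarin/fluorescein substrate, with inhibitor, metallo-β-lactamase and substrate incubated together for 2 hours at 25° C. IC50 came from a 4-parameter fit of inhibition versus log inhibitor concentration.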

[3] = test system: Serratia marcescens expressing IMP-1 (CL5741); assay type: cell-based; settings: with imipenem 1 μg/ml, 95% inhibition of bacterial growth; for Serratia marcescens MITC95: IMP-1 (CL5741)
Method in brief: (§3)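 Restoration of imipenem susceptibility (1 μg/ml imipenem) was judged by absorbance after 22–24 h at 35° C. Test compound was added to bacteria suspended 1:100 in 1.1× CAMHB from overnight blood-agar cultures.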

[4] = test system: Escherichia coli expressing NDM-1 (CLB30005, CLB30016); assay type: cell-based; settings: with imipenem 1 μg/ml, 95% inhibition of bacterial growth; for Escherichia coli MITC95: NDM-1 (CLB30016)
Method in brief: as §3

[5] = test system: Klebsiella pneumoniae expressing VIM-1 (IHMA599644); assay type: cell-based; settings: with imipenem 1 μg/ml, 95% inhibition of bacterial growth; for Klebsiella pneumoniae MITC95: VIM-1 (IHMA599644)
Method in brief: as §3

[6] = test system: P. aeruginosa expressing IMP-1, efflux− (MB9799); test: Efflux: concentration of MBL inhibitor which restores susceptibility to imipenem; assay type: cell-based, Pseudomonas aeruginosa; settings: imipenem at 2 μg/mL, in the presence of a class A, C, D serine β-lactamase inhibitor closely related to relebactam
From the text: as §1

[7] = molecular target: IMP-1 (Serratia marcescens, UniProt P52699); test: biochemical; assay type: biochemical; settings: CCF2-FA substrate, 2 hours at 25° C; read-out: IMP-1 IC50
Method in brief: as §2

[8] = molecular target: NDM-1 (Klebsiella pneumoniae, UniProt C7C422); test: biochemical; assay type: biochemical; settings: CCF2-FA substrate, 2 hours at 25° C; read-out: NDM-1 IC50
Method in brief: as §2

Sequence of NDM-1 (C7C422 whole entry, looked up, species assumed): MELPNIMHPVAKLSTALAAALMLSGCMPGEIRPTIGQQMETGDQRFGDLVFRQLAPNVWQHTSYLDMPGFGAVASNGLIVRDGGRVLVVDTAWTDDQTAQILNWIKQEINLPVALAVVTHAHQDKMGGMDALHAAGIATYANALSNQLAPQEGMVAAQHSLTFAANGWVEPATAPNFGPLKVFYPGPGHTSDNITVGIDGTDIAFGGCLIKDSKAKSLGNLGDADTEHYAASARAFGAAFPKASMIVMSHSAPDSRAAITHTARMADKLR
Sequence of IMP-1 (P52699 whole entry, looked up, species assumed): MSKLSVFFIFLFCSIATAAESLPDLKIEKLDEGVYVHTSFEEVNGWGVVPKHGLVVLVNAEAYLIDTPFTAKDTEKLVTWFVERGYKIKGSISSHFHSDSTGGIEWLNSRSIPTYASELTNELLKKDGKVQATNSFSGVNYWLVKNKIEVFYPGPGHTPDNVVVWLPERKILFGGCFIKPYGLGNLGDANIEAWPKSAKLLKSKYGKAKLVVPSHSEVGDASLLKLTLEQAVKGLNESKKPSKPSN

Structure (SMILES) | P. aeruginosa expressing IMP-1, efflux+ (MB9798) MITC95 [1] | Efflux ratio [1] | IC50 [2] | Serratia marcescens MITC95 [3] | Escherichia coli MITC95 [4] | Klebsiella pneumoniae MITC95 [5] | P. aeruginosa expressing IMP-1, efflux− (MB9799) MITC95 [6] | IC50 [7] | IC50 [8] | Serratia marcescens expressing IMP-1 (CL5741) MITC95 [3] | Escherichia coli expressing NDM-1 (CLB30016) MITC95 [4] | Klebsiella pneumoniae expressing VIM-1 (IHMA599644) MITC95 [5]
NS(=O)(=O)c1c(S(=O)(=O)C2CNC2)ccc(-c2ccnc(N3CCNC3=O)c2)c1-c1nnn[nH]1 [Example 343, 6-(Azetidin-3-ylsulfonyl)-3-(2-(2-oxoimidazolidin-1-yl)pyridin-4-yl)-2-(1H-tetrazol-5-yl)benzenesulfonamide] | 25 µM | 15.99 | 198 pM | 3.125 µM | 3.125 µM | 6.25 µM | 1.563 µM | 1890 pM | 510 pM | – | – | –
Nc1nc2c(-c3ccc(S(=O)(=O)C4CNC4)c(S(N)(=O)=O)c3-c3nn[nH]n3)cccc2n1CCO [Example 373, 3-(2-Amino-1-(2-hydroxyethyl)-1H-benzo[d]imidazol-4-yl)-6-(azetidin-3-ylsulfonyl)-2-(2H-tetrazol-5-yl)benzenesulfonamide] | 1.563 µM | 1.00 | 248 pM | 1.563 µM | 0.7813 µM | 3.125 µM | 1.563 µM | 409 pM | 138 pM | – | – | –
Nc1nc2c(-c3ccc(S(=O)(=O)CCN4CCOCC4=O)c(S(N)(=O)=O)c3-c3nn[nH]n3)cccc2s1 [Example 259, 3-(2-aminobenzo[d]thiazol-4-yl)-6-((2-(3-oxomorpholino)ethyl)sulfonyl)-2-(2H-tetrazol-5-yl)benzenesulfonamide] | 12.5 µM | 2.00 | 245 pM | 12.5 µM | 25 µM | 25 µM | 6.25 µM | 349 pM | 167 pM | – | – | –
Nc1nc2c(-c3ccc(S(=O)(=O)[C@@H]4CN[C@H](CO)C4)c(S(N)(=O)=O)c3-c3nn[nH]n3)cccc2s1 [Example 349, 3-(2-Aminobenzo[d]thiazol-4-yl)-6-(((3 S,5S)-5-(hydroxymethyl)pyrrolidin-3-yl)sulfonyl)-2-(2H-tetrazol-5-yl)benzenesulfonamide] | 1.563 µM | 1.00 | 452 pM | 1.563 µM | 3.125 µM | 3.125 µM | 1.563 µM | 220 pM | 65.9 pM | – | – | –
N#Cc1cc(-c2ccc(S(=O)(=O)C3CNC3)c(S(N)(=O)=O)c2-c2nnn[nH]2)c2[nH]c(N)nc2c1 [Example 261, 3-(2-amino-5-cyano-1H-benzo[d]imidazol-7-yl)-6-(azetidin-3-ylsulfonyl)-2-(1H-tetrazol-5-yl) benzenesulfonamide] | 6.25 µM | 1.00 | 734 pM | 6.25 µM | 6.25 µM | 12.5 µM | 6.25 µM | 1150 pM | 400 pM | – | – | –
NC[C@@H](O)CS(=O)(=O)c1ccc(-c2cccc3[nH]c(N)nc23)c(-c2nn[nH]n2)c1S(N)(=O)=O [Example 312, 3-(2-amino-1H-benzo[d]imidazol-4-yl)-6-((R)-3-amino-2-hydroxypropylsulfonyl)-2-(2H-tetrazol-5-yl)benzenesulfonamide] | 0.2786 µM | 0.50 | 389 pM | 0.5573 µM | 0.3477 µM | 0.8542 µM | 0.5573 µM | 430 pM | 120 pM | – | – | –
Nc1nc2ccc(-c3ccc(S(=O)(=O)C4CNC4)c(S(N)(=O)=O)c3-c3nn[nH]n3)cn2n1 [Example 215, 3-(2-amino-[1,2,4]triazolo[1,5-a]pyridin-6-yl)-6-(azetidin-3-ylsulfonyl)-2-(2H-tetrazol-5-yl)benzenesulfonamide] | 6.25 µM | 2.00 | 298 pM | – | – | – | 3.125 µM | 2190 pM | 239 pM | 3.125 µM | 3.125 µM | 6.25 µM
Cl.Cl.NCCCS(=O)(=O)c1ccc(-c2cccc3[nH]c(N)nc23)c(-c2nn[nH]n2)c1S(N)(=O)=O [Example 270, 3-(2-amino-1H-benzo[d]imidazol-4-yl)-6-(3-aminopropylsulfonyl)-2-(2H-tetrazol-5-yl)benzenesulfonamide dihydrochloride] | 0.4453 µM | 1.00 | 228 pM | 0.6406 µM | 0.125 µM | 0.8906 µM | 0.4453 µM | 625 pM | 143 pM | – | – | –
NS(=O)(=O)c1c(S(=O)(=O)C2CCNCC2)ccc(-c2ccc(C3CCNCC3)cc2)c1-c1nnn[nH]1 [Example 228, 4′-(piperidin-4-yl)-4-(piperidin-4-ylsulfonyl)-2-(1H-tetrazol-5-yl)-[1,1′-biphenyl]-3-sulfonamide] | 0.7813 µM | 1.00 | 314 pM | – | – | – | 0.7813 µM | 521 pM | 985 pM | 3.125 µM | 1.563 µM | 3.125 µM
NCCS(=O)(=O)c1ccc(-c2ccc3[nH]c(=O)oc3c2)c(-c2nnn[nH]2)c1S(N)(=O)=O.O=C(O)C(F)(F)F [Example 155, 2-((4-(2-oxo-2,3-dihydrobenzo[d]oxazol-6-yl)-2-sulfamoyl-3-(1H-tetrazol-5-yl)phenyl)sulfonyl)ethanaminium 2,2,2-trifluoroacetate] | 3.125 µM | 4.00 | 289 pM | – | – | – | 0.7813 µM | 226 pM | 814 pM | 1.563 µM | 0.7813 µM | 1.563 µM
NS(=O)(=O)c1c(S(=O)(=O)C2CNC2)ccc(-c2cccn3cncc23)c1-c1nnn[nH]1 [Example 60, 6-(azetidin-3-ylsulfonyl)-3-(imidazo[1,5-a]pyridin-8-yl)-2-(1H-tetrazol-5-yl)benzenesulfonamide] | 12.5 µM | 4.00 | 408 pM | – | – | – | 3.125 µM | 2350 pM | 811 pM | 3.125 µM | 1.563 µM | 6.25 µM
Cn1cc2cc(-c3ccc(S(=O)(=O)CCN)c(S(N)(=O)=O)c3-c3nnn[nH]3)ccc2n1.O=C(O)C(F)(F)F [Example 153, 2-((4-(2-methyl-2H-indazol-5-yl)-2-sulfamoyl-3-(1H-tetrazol-5-yl)phenyl)sulfonyl)ethanaminium 2,2,2-trifluoroacetate] | 6.25 µM | 4.00 | 309 pM | – | – | – | 1.563 µM | 457 pM | 593 pM | 3.125 µM | 1.563 µM | 3.125 µM
NCCS(=O)(=O)c1ccc(-c2cccc(N3CCCC3=O)n2)c(-c2nnn[nH]2)c1S(N)(=O)=O.O=C(O)C(F)(F)F [Example 147, 2-((4-(6-(2-oxopyrrolidin-1-yl)pyridin-2-yl)-2-sulfamoyl-3-(1H-tetrazol-5-yl)phenyl)sulfonyl)ethanaminium 2,2,2-trifluoroacetate] | 100 µM | 63.98 | 519 pM | – | – | – | 1.563 µM | 4100 pM | 3120 pM | 6.25 µM | 6.25 µM | 6.25 µM
